Assay results published in patent US20240142457A1, “USE OF CASD1 AS A BIOMARKER OF A CANCER EXPRESSING THE O-ACETYLATED-GD2 GANGLIOSIDE” (OGD2 PHARMA, priority 2021, published 2024).

Experiments:
[1] = system: OAcGD2 expression in MDA-MB-231 GD3S+ cells; test: OAcGD2 immunocytochemistry and confocal microscopy after CERK inhibitor or siRNA; assay type: cell-based, human; details: 1 μM NVP231, 2, 4, 6, 8, 20, 24 or 48 hours; increase from 2 to 8 hours, decrease after 8 hours
Method: (§1) Transfections were performed with 10 μM of siRNA control non-targeting (D001810-10-20, Horizon), siRNA targeting CASD1 (L-016926-01-0010, Horizon), or two different siRNA targeting CERK: CERK2 (D-004061-02-0010, Horizon), or CERK4 ([…], Horizon) and 4 μL of RNAimax (#137781, Thermo fischer Scientific) in 500 μL of UltraMEM (Lonza). In 6-well plates, 150,000 cells were grown in 1,5 mL of DMEM and transfection mix. Cells were collected 72 hours after transfection for qPCR or immunocytochemistry experiments.
Cells were seeded in 6-well plates (150,000 cells/well) with coverslips in 2 mL of DMEM medium. After 24 hours, the medium was replaced with DMEM containing 1 μM of the CERK inhibitor NVP231 (SigmaN9289). After 2 h, 4 h, 6 h, 8 h, 20 h, 24 h or 48 h of CERK inhibitor treatment, cells were collected for immunocytochemistry experiments.
Transfected cells were grown on glass coverslips and were fixed for 20 min in 4% paraformaldehyde. Cells were washed three times with PBS 1X and membrane permeabilization was performed in 5 μg/mL digitonine in PBS 1X for 20 min. After 3 washes, cells were saturated in PBS 1X-BSA 0.5% blocking buffer. […] The green fluorescence was acquired with λex=488 nm and λem=500-530 nm, DAPI with λex=350 nm and λem=460 nm. […] Mean fluorescence intensity was calculated with macro using ImageJ.

MDA-MB-231 GD3S+ cells = test: Transwell migration assay; assay type: cell-based, human; details: 1 μM NVP231, 24 hours, vs untreated
Method: as §1
Cells were seeded in 12-well plates containing migration chamber in serum-free medium. Below the chamber, medium with serum was added into the wells in the presence or absence of 1 μM of NVP231. After 24 hours incubation at 37° C., wells were fixed with 4% paraformaldehyde and non-migratory cells were swapped with cotton swabs. Cells were washed three times and nuclei were stained with DAPI. Membranes were cut out and mounted between glass slide and coverslip with fluorescent mounting medium. Nuclei were counted using A1 Nikon confocal microscopy.

[2] = system: OAcGD2 expression in MDA-MB-231 GD3S+ cells; test: siRNA screen, OAcGD2 immunofluorescence (8B6 mAb) with automated imaging; assay type: cell-based, human; details: fixed cells treated with NaOH 0.1M before primary antibody staining, compared to siNT transfected wells
Method: 2.5 μL/well of 500 nM siGenome siRNA (Dharmacon/Horizon) was printed into blackwalled 384 well cell carrier ultra plates (Perkin Elmer) with Velocity 11 (Agilent) as described before (Chia et al., 2012, Mol. Syst. Biol., 8: 629.). Reverse siRNA transfection was performed by pre-mixing 0.1 μL of Dharmafect 1 transfection reagent (#T-2001-03, Horizon) with 7.4 μL of Optimem for 5 minutes. Addition of mixture to the siRNA plate was then performed with small multidrop combi cassette (Thermo-Fisher) and was left for complexation for 20 minutes with shaking. Addition of 2750 cells in 40 μL of DMEM supplemented with 10% FCS per well was then performed with multidrop combi standard cassette at medium speed (Thermo-Fisher). siRNA targeting-GD2S (L-011279-00-0020, Horizon), Polo like kinase 1 (PLK1; L-003290-00-0020, Horizon) and […] (D-001810-10-20, Horizon) were used as screen controls.
After 72 h of incubation, transfected cells were fixed with 50 μL per well of 4% paraformaldehyde in 2% sucrose and 0.1M sodium phosphate buffer, […] at 37° C. […]
An OAcGD2 expression metric was derived with total cell thresholded fluorescence intensity obtained by immunodetection with 8B6 mAb in MDA-MB-231 GD3S+cells and was normalized with Hoeschst nuclei counts. […]

[3] = attributed to GD2 expression in healthy peripheral nerve fibers; cited from earlier work

## O=C(Nc1nc2ccc(NC(=O)C34CC5CC(CC(C5)C3)C4)cc2s1)c1ccccc1 [CERK inhibitor, NVP231]
[1]
  OAcGD2 expression (mean fluorescence intensity): transitory overexpression
MDA-MB-231 GD3S+ cells
  migration capacity of the cells: no effect

## [Na+].[OH-] [NaOH, Sodium hydroxide]
[2]
  OAcGD2 staining: abolished

B1: Dinutuximab: anti-GD2 monoclonal antibody approved for pediatric high-risk neuroblastoma (antibody, chains of the INN, looked up, V domains shown)
VH: EVQLLQSGPELEKPGASVMISCKASGSSFTGYNMNWVRQNIGKSLEWIGAIDPYYGGTSYNQKFKGRATLTVDKSSSTAYMHLKSLTSEDSAVYYCVSGMEYWGQGTSVTVSS
VL: EIVMTQSPATLSVSPGERATLSCRSSQSLVHRNGNTYLHWYLQKPGQSPKLLIHKVSNRFSGVPDRFSGSGSGTDFTLKISRVEAEDLGVYFCSQSTHVPPLTFGAGTKLELK
[3]
  side effects: severe side effects
